This assay relates to BMP7 induced pSMAD1/5/8 in BMPR2−/− and TGF-β1 induced pSMAD2. Kind of assay: Western blot, BMP7 vs TGF-beta induced pSMAD in PASMCs. It counts as cell-based, mice. The conditions noted are these: versus LDN-193189; BMPR2-deficient and wild type PASMCs; FIGS. 5b and 5c. As for the experimental part:
C2C12 […] cells stably transfected with BMP responsive element from the Idl promoter fused to luciferase reporter gene (BRE-Luc) and human embryonic kidney 293T cells stably transfected with the TGF-β responsive element from the PAI-1 promoter fused to luciferase reporter gene (CAGA-Luc) were cultured in DMEM (Life Technologies) supplemented with 10% FBS, L-glutamine, and pen/strep at 37° C. and 10% CO2. HepG2 human hepatoma cells (ATCC) were cultured in EMEM (Life Technologies) supplemented with 10% FBS, L-glutamine, and pen/strep at 37° C. and 10% CO2. C2C12 […] (ATCC) were cultured in DMEM (Life Technologies) supplemented with 10% FBS, L-glutamine, and pen/strep at 37° C. and 10% CO2. […]
Both WT and BMPR2^del/del PASMCs were seeded in 12-well plates (Falcon®; BD Biosciences) at 75% confluency (˜375,000 cells in 480 μL per well). […] The phosphorylation state of downstream effector proteins (pSMAD1/5/8 and pSMAD2 for BMP and TGF-β respectively) was measured by western blotting performed 30 minutes after ligand stimulation. Western blots were analyzed using ImageJ with positive controls at 100% ligand induced phospho-SMAD and negative controls being subtracted as background. […]
In general terms: Immunoblotting shows a protein as a band on a membrane.

This note sets out measurements from patent US20160115167A1, “BMP INHIBITORS AND METHODS OF USE THEREOF” (THE BRIGHAM AND WOMEN'S HOSPITAL, INC., priority 2013, published 2016).

The structures appear in SMILES notation.

`c1cc(-c2cnn3cc(-c4ccc(N5CCNCC5)cc4)cnc23)c2cccnc2c1` [LDN-212854]: the “selectivity, BMP7 induced pSMAD1/5/8 versus TGF-β1 induced pSMAD2” value is recorded as “improved selectivity”.
